Source: the NIST ThermoML archive (doi:10.1021/je0498053)

Assays:
[1] = 101.3 kPa, Liquid
[2] = xn = mol fraction of the nth substance listed; settings: 101.3 kPa, Liquid

CCCCN [1-butanamine]
[1]
Settings | mass density [kg/m3] | viscosity [mPa·s]
303.15 K | 732.1 | 0.46
313.15 K | 722.9 | 0.4
323.15 K | 712.7 | 0.36

CCCCN [1-butanamine] + CC(C)CC(C)O
[2], x1 = 1
Settings | mass density [kg/m3] | viscosity [mPa·s]
303.15 K | 732.1 | 0.46
313.15 K | 722.9 | 0.4
323.15 K | 712.7 | 0.36

CCCCN [1-butanamine] + CCCC(C)(C)O
[2], x1 = 1
Settings | mass density [kg/m3] | viscosity [mPa·s]
303.15 K | 732.1 | 0.46
313.15 K | 722.9 | 0.4
323.15 K | 712.7 | 0.36

CCCCN [1-butanamine] + CCCC(C)CO
[2], x1 = 1
Settings | mass density [kg/m3] | viscosity [mPa·s]
303.15 K | 732.1 | 0.46
313.15 K | 722.9 | 0.4
323.15 K | 712.7 | 0.36

CCCCN [1-butanamine] + CCCC(O)CC
[2], x1 = 1
Settings | mass density [kg/m3] | viscosity [mPa·s]
303.15 K | 732.1 | 0.46
313.15 K | 722.9 | 0.4
323.15 K | 712.7 | 0.36

CCCCN [1-butanamine] + CCCCC(C)O
[2], x1 = 1
Settings | mass density [kg/m3] | viscosity [mPa·s]
303.15 K | 732.1 | 0.46
313.15 K | 722.9 | 0.4
323.15 K | 712.7 | 0.36

CCCCC(C)O (stereo unspecified) [2-hexanol]
[1]
Settings | mass density [kg/m3] | viscosity [mPa·s]
303.15 K | 806.4 | 3.23
313.15 K | 798.4 | 2.29
323.15 K | 790.1 | 1.64

CCCCC(C)O (stereo unspecified) [2-hexanol] + CCCCN
[2]
Settings | mass density, 303.15 K [kg/m3] | mass density, 313.15 K [kg/m3] | mass density, 323.15 K [kg/m3] | viscosity, 303.15 K [mPa·s] | viscosity, 313.15 K [mPa·s] | viscosity, 323.15 K [mPa·s]
x2 = 0 | 806.4 | 798.4 | 790.1 | 3.23 | 2.29 | 1.64
x2 = 0.1 | 802 | 794.2 | 786 | 2.67 | 1.97 | 1.45
x2 = 0.2 | 796.7 | 788.9 | 780.6 | 2.19 | 1.68 | 1.26
x2 = 0.3 | 791.5 | 783.7 | 775.3 | 1.78 | 1.4 | 1.1
x2 = 0.4 | 785 | 776.9 | 768.5 | 1.47 | 1.17 | 0.93
x2 = 0.5 | 777.7 | 769.4 | 760.8 | 1.2 | 0.98 | 0.79
x2 = 0.6 | 769.8 | 761.4 | 751.1 | 0.97 | 0.81 | 0.67
x2 = 0.6999 | 760.7 | 752.1 | 741.6 | 0.79 | 0.68 | 0.57
x2 = 0.8 | 751.3 | 742.7 | 732.4 | 0.65 | 0.56 | 0.47
x2 = 0.9 | 742.1 | 732.9 | 722.9 | 0.53 | 0.47 | 0.4

CCCC(C)CO (stereo unspecified) [2-methyl-1-pentanol]
[1]
Settings | mass density [kg/m3] | viscosity [mPa·s]
303.15 K | 816.8 | 4.55
313.15 K | 809.5 | 3.18
323.15 K | 801.5 | 2.25

CCCC(C)CO (stereo unspecified) [2-methyl-1-pentanol] + CCCCN
[2]
Settings | mass density, 303.15 K [kg/m3] | mass density, 313.15 K [kg/m3] | mass density, 323.15 K [kg/m3] | viscosity, 303.15 K [mPa·s] | viscosity, 313.15 K [mPa·s] | viscosity, 323.15 K [mPa·s]
x2 = 0 | 816.8 | 809.5 | 801.5 | 4.55 | 3.18 | 2.25
x2 = 0.1 | 810.3 | 803 | 795.3 | 3.38 | 2.51 | 1.85
x2 = 0.2 | 804.8 | 797.4 | 789.6 | 2.67 | 2.06 | 1.57
x2 = 0.2999 | 798.2 | 790.6 | 782.6 | 2.1 | 1.65 | 1.32
x2 = 0.4 | 791 | 783.2 | 775 | 1.67 | 1.35 | 1.08
x2 = 0.5 | 783.6 | 775.7 | 767.2 | 1.37 | 1.11 | 0.91
x2 = 0.6 | 774.5 | 766.3 | 757.7 | 1.1 | 0.9 | 0.75
x2 = 0.6999 | 764.7 | 756.2 | 747.4 | 0.89 | 0.72 | 0.6
x2 = 0.8 | 753.9 | 745.2 | 736.1 | 0.69 | 0.59 | 0.5
x2 = 0.8999 | 742.9 | 734.5 | 724.3 | 0.54 | 0.48 | 0.42

CCCC(C)(C)O [2-methyl-2-pentanol]
[1]
Settings | mass density [kg/m3] | viscosity [mPa·s]
303.15 K | 810.8 | 2.93
313.15 K | 802.4 | 2.06
323.15 K | 793.5 | 1.46

CCCC(C)(C)O [2-methyl-2-pentanol] + CCCCN
[2]
Settings | mass density, 303.15 K [kg/m3] | mass density, 313.15 K [kg/m3] | mass density, 323.15 K [kg/m3] | viscosity, 303.15 K [mPa·s] | viscosity, 313.15 K [mPa·s] | viscosity, 323.15 K [mPa·s]
x2 = 0 | 810.8 | 802.4 | 793.5 | 2.93 | 2.06 | 1.46
x2 = 0.1 | 806.7 | 798.2 | 789.2 | 2.62 | 1.88 | 1.34
x2 = 0.2 | 801.5 | 793.1 | 784 | 2.25 | 1.66 | 1.2
x2 = 0.3 | 795.7 | 787.2 | 778.2 | 1.86 | 1.41 | 1.04
x2 = 0.4 | 788.8 | 780.2 | 771.2 | 1.55 | 1.2 | 0.92
x2 = 0.4999 | 781.4 | 772.8 | 763.7 | 1.26 | 1 | 0.79
x2 = 0.5999 | 772.9 | 764.2 | 754.7 | 1.01 | 0.83 | 0.67
x2 = 0.7 | 763.8 | 755 | 745.1 | 0.82 | 0.69 | 0.57
x2 = 0.8 | 753.4 | 744.3 | 734.3 | 0.66 | 0.57 | 0.48
x2 = 0.9 | 742.4 | 733.3 | 723.6 | 0.54 | 0.47 | 0.41

CCCC(O)CC (stereo unspecified) [3-hexanol]
[1]
Settings | mass density [kg/m3] | viscosity [mPa·s]
303.15 K | 810.2 | 3.52
313.15 K | 801.7 | 2.34
323.15 K | 792.8 | 1.58

CCCC(O)CC (stereo unspecified) [3-hexanol] + CCCCN
[2]
Settings | mass density, 303.15 K [kg/m3] | mass density, 313.15 K [kg/m3] | mass density, 323.15 K [kg/m3] | viscosity, 303.15 K [mPa·s] | viscosity, 313.15 K [mPa·s] | viscosity, 323.15 K [mPa·s]
x2 = 0 | 810.2 | 801.7 | 792.8 | 3.52 | 2.34 | 1.58
x2 = 0.1 | 806.4 | 798.4 | 789.8 | 2.85 | 2.2 | 1.44
x2 = 0.2 | 801.4 | 793.5 | 785 | 2.26 | 1.79 | 1.24
x2 = 0.3 | 795.6 | 787.5 | 776.9 | 1.78 | 1.39 | 1.07
x2 = 0.3999 | 788.6 | 780.5 | 770 | 1.41 | 1.09 | 0.91
x2 = 0.5 | 780.4 | 772 | 763.2 | 1.13 | 0.89 | 0.76
x2 = 0.5999 | 772 | 763.5 | 754.5 | 0.92 | 0.78 | 0.65
x2 = 0.7 | 762.9 | 754.1 | 745.2 | 0.76 | 0.68 | 0.55
x2 = 0.7999 | 753 | 743.6 | 734.4 | 0.65 | 0.58 | 0.48
x2 = 0.9 | 742 | 732.7 | 723.2 | 0.54 | 0.46 | 0.4

CC(C)CC(C)O (stereo unspecified) [4-methyl-2-pentanol]
[1]
Settings | mass density [kg/m3] | viscosity [mPa·s]
303.15 K | 799.3 | 3.23
313.15 K | 790.7 | 2.24
323.15 K | 782 | 1.55

CC(C)CC(C)O (stereo unspecified) [4-methyl-2-pentanol] + CCCCN
[2]
Settings | mass density, 303.15 K [kg/m3] | mass density, 313.15 K [kg/m3] | mass density, 323.15 K [kg/m3] | viscosity, 303.15 K [mPa·s] | viscosity, 313.15 K [mPa·s] | viscosity, 323.15 K [mPa·s]
x2 = 0 | 799.3 | 790.7 | 782 | 3.23 | 2.24 | 1.55
x2 = 0.1 | 794.8 | 787 | 778.6 | 2.61 | 1.91 | 1.4
x2 = 0.2 | 790.7 | 782.9 | 774.5 | 2.06 | 1.57 | 1.21
x2 = 0.3 | 785.2 | 777.3 | 768.9 | 1.66 | 1.31 | 1.02
x2 = 0.3999 | 779.6 | 771.5 | 763 | 1.35 | 1.09 | 0.87
x2 = 0.5 | 772.8 | 764.6 | 755.9 | 1.09 | 0.91 | 0.75
x2 = 0.6 | 766 | 757.5 | 748.6 | 0.92 | 0.77 | 0.64
x2 = 0.6999 | 758 | 749.4 | 740.3 | 0.77 | 0.65 | 0.54
x2 = 0.7999 | 749.7 | 740.9 | 731.1 | 0.64 | 0.55 | 0.47
x2 = 0.9 | 740.8 | 731.7 | 721.7 | 0.56 | 0.48 | 0.41
